A word on the IC50: it is the concentration needed to halve the response being measured.

The values below come from PMC12081876, “Identification of PTGR2 inhibitors as a new therapeutic strategy for diabetes and obesity” (EMBO Molecular Medicine, 2025).

Data set [1] deals with F4/80-positive macrophages. The experiment in a line: F4/80 immunohistochemical stain of perigonadal fat. It counts as in vivo, mouse. The following applies: 100 mg/kg/day oral, HFHSD-fed mice, vs vehicle. As for the experimental part: Mice perigonadal fat were paraffin-embedded and the 4-µm tissue sections were cut from the paraffin blocks on the slides by Pathology core of the Institute of Biomedical Sciences, Academia Sinica. The slides were conducted immunochemistry staining using primary antibodies for F4/80 (1:200; cat#H0005972-M01, Abnova) and digitized using an Olympus BX51 microscope combined with an Olympus DP72 camera and CellSens Standard 1.14 software (Olympus, Germany).

For data set [2], the system named is HFHSD-fed obese C57BL6/J mice. The experiment in a line: Bone mineral density of femur (micro CT). The data set is classed as in vivo, mouse.
The target in a further data set is T1, human PTGR2 (hPTGR2) (Homo sapiens, UniProt Q8N8N7).
T1 construct: made in house
T1 sequence (Q8N8N7 whole entry): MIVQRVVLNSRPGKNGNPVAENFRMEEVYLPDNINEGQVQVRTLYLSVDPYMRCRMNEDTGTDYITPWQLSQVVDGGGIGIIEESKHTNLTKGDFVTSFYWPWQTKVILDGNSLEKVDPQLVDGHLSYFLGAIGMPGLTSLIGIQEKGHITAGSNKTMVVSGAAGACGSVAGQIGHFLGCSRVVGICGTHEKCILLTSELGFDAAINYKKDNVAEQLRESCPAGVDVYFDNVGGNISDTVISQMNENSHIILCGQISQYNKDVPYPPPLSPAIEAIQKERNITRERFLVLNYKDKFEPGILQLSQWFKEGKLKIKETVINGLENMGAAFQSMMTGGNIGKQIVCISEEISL
As to the kind of experiment: Recombinant human PTGR2 enzymatic inhibition (NADPH-Glo), IC50. It counts as biochemical. On the procedure:
High-throughput compound screening was conducted at the core service in the Genomics Research Center (GRC) of Academia Sinica, Taiwan. The GRC 120 K ReSet comprises more than 125,000 compounds, selected as representatives by structural similarity clustered from the 2 M GRC compound library. The ReSet was arrayed in 1536-well plates as single compounds at 1 mM in 100% DMSO. The quality of all compounds was assured by the vendor (purity is greater than 90%) and was verified internally with 5% random sampling. Recombinant human PTGR2 protein was purified, and the screening was conducted using the NADPH-Glo Detection kit (Promega) to measure the amount of NADPH. The CV of HTS ranged from 4.8% to 6.1%, with a Z’ value of 0.7. The threshold was set as 1.5, resulting in ~300 hits for further confirmation and determination of the half-maximal inhibitory concentration (IC50). […]

The target of another data set is T2, mPPARγ (Mus musculus, UniProt P37238).
T2 construct: from tissue; host or cells: perigonadal (epididymal) white adipose tissue of Ptgr2+/+ and Ptgr2-/- mice
T2 sequence (P37238 whole entry): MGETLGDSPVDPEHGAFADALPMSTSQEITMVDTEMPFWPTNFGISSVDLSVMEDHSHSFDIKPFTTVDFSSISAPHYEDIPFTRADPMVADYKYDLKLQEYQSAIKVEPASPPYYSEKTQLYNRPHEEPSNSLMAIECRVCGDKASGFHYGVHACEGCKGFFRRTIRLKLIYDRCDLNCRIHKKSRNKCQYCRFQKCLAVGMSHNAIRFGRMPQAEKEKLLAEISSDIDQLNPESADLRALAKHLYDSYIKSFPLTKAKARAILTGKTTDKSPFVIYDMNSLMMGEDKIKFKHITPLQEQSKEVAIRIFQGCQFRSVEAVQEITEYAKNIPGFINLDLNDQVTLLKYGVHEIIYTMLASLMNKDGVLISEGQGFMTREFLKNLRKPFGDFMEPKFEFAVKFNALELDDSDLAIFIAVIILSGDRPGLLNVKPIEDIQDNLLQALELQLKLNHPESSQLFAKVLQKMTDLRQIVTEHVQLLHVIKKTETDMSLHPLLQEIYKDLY
The experiment in a line: Co-immunoprecipitation in mouse white adipose tissue. It counts as binding. The conditions noted are these: epididymal white adipose tissue of Ptgr2+/+ and Ptgr2−/− mice. An excerpt: Lysates from the perigonadal fat of Ptgr2^+/+ and Ptgr2^−/− mice were immunoprecipitated with a mouse anti-15-keto-PGE2-cysteine-BSA antibody (1:1000) and then immunoblotted with a rat anti-PPARγ antibody (1:1000, cat. no. sc-7273, Santa Cruz Biotechnology).

Another data set deals with T3, Myc-DDK-mPPARγ (Mus musculus, UniProt P37238).
T3 construct: host or cells: HEK293T
T3 sequence (P37238 whole entry): as above
As to the kind of experiment: Reciprocal co-immunoprecipitation in HEK293T cells, wild-type mPPARγ. The following applies: 15-keto-PGE2 treated. It counts as binding, murine. On the procedure:
(§1) HEK293T cells were transfected with murin PPARγ (mPPARγ) and mPPARγ C313A plasmids for immunoprecipitation, which are Myc-DDK-tagged (OriGene, USA). […] According to the manufacturer’s protocol, proteins were immunoprecipitated using Anti-FLAG® M2 Magnetic Beads (2.5 mg/ml; cat. no. F1804, Sigma-Aldrich). Subsequently, the eluted proteins were separated by SDS-PAGE and subjected to immunoblot analysis. Following separation by SDS-PAGE, proteins were stained with Coomassie blue and SYPRO-Ruby stain. The protein bands of interest were cut out for in-gel tryptic digestion followed by C18 Zip-Tip clean-up (Millipore, USA). For proteomic shotgun identifications, nanoLC-nanoESI-MS/MS analysis was performed on a nanoAcquity system (Waters, USA) connected to the LTQ Orbitrap Velos hybrid MS (Thermo Electron, USA) equipped with a PicoView nanospray interface (New Objective, USA). Samples were loaded onto a C18 BEH column (75 μm × 25 cm length, 130 Å, 1.7 μm particle size) (Waters, USA) and separated by a segmented gradient form in 60 min from 5% to 40% acetonitrile (with 0.1% formic acid) at a constant flow rate of 300 nL/min with a column temperature of 35 °C. The mass spectrometer was operated in the data-dependent mode. […] Protein identification and modification were analyzed using Mascot Daemon (Matrix Science Inc., Chicago). […]

For a further data set, the system named is phospho-Akt. As to the kind of experiment: Insulin signaling in vivo (phospho-Akt immunoblot). More on the design: species or system mouse. The following applies: 40 mg/kg/day ip, HFHSD-fed mice, vs vehicle. On the procedure: To evaluate insulin signaling in vivo, mice were fasted overnight. Tissue was harvested 15 min after intraperitoneal insulin injection. The samples (perigonadal fat, inguinal fat, brown adipose tissue and liver) were extracted with RIPA buffer (50 mM Tris-HCl, pH 7.4, 2 mM ethylenediaminetetraacetic acid [EDTA]), 150 mM NaCl, 50 mM NaF, 1% Nonidet P-40, 1 mM phenylmethylsulfonyl fluoride [PMSF], 0.5% sodium deoxycholate, and 0.1% sodium dodecyl sulfate [SDS]) containing phosphatase inhibitor cocktail (cat. no. 04693132001, Roche) and homogenized. The homogenates were then centrifuged at 13,000 rpm for 10 min at 4 °C to remove debris. Samples were separated by SDS-polyacrylamide gel electrophoresis, transferred to polyvinylidene difluoride (PVDF) membrane, blocked with 3% BSA, and probed with anti-phospho-Akt antibody (cat. no. 4058, Cell Signaling) and anti-Akt antibody (cat. no. 9272, Cell Signaling), and then with HRP conjugated anti-rabbit IgG antibody (1:10,000; cat. no. GTX26721, GeneTex).
In general terms: In western blotting, separated proteins are transferred to a membrane and probed.

The target of a further data set is T4, murine PPARγ (mPPARγ) (Mus musculus, UniProt P37238).
T4 construct: host or cells: HEK293T
T4 sequence (P37238 whole entry): as above
As to the kind of experiment: LC-MS/MS of covalent binding to mPPARγ overexpressed in HEK293T cells. The following applies: HEK293T cells overexpressing mPPARγ. On the procedure:
as §1

For another data set, the system named is Ucp1. The experiment in a line: Relative Ucp1 expression in fat depots (RT-qPCR). The conditions noted are these: 40 mg/kg/day ip, HFHSD-fed mice, vs vehicle. The data set is classed as in vivo, mouse. (In general: Real-time PCR tracks product formation cycle by cycle.)

Each structure is given as a SMILES string. Several values for one entry are separate records, joined by “and”; a condition that tells them apart may be missing. Equal values may be shown once.

Turning to `Cc1[nH]c2nc(C(C)N3CCN(c4ccccc4)CC3)nn2c(=O)c1Cc1ccc(F)cc1` (centres unmarked) [BPRPT0245], in data set [1], the “F4/80-positive macrophages in perigonadal fat” value is listed as “fewer F4/80-positive macrophages”. Moreover, the Bone mineral density result in data set [2] (100 mg/kg/day oral, 26 weeks, vs vehicle) is “no difference”. Also, in data set [2] (individual values, BPRPT0245 group (Figure 5T)), the “Figure 5T value (bone mineral density of femur), individual mice” value was 0.3548 and 0.3423 and 0.3795 and 0.3591 and 0.3711 and 0.3604 and 0.3411 and 0.3634 and 0.3483 and 0.3707. Besides, the “Figure 5B raw signal of the hPTGR2 inhibition dose-response (replicates)” value on human PTGR2 (hPTGR2) (concentration 4.6 (unit not given)) was 5700 and 5540; on human PTGR2 (hPTGR2) (concentration 13.7 (unit not given)), 12160 and 11080 and 9760; at human PTGR2 (hPTGR2) (concentration 41.2 (unit not given)) it was 25040 and 27420 and 26900; at human PTGR2 (hPTGR2) (concentration 123.5 (unit not given)), 32220 and 32000 and 34120; on human PTGR2 (hPTGR2) (concentration 370.4 (unit not given)), 37280 and 38620 and 37900; on human PTGR2 (hPTGR2) (concentration 1111.1 (unit not given)) it was 40200 and 38760 and 38680. Also, the “Figure 5B raw signal of the hPTGR2 inhibition dose-response (replicates)” value at human PTGR2 (hPTGR2) (concentration 3333.3 (unit not given)) is 40060 and 40940 and 40560; at human PTGR2 (hPTGR2) (concentration 10000 (unit not given)) it was 42020 and 40520 and 40720. On human PTGR2 (hPTGR2) (human PTGR2 enzymatic activity), the IC50 turned out to be 8.92 nM.
Regarding `CCCCCC(=O)/C=C/[C@H]1[C@H](O)CC(=O)[C@@H]1C/C=C\CCCC(=O)O` [15-keto-PGE2, 15-keto-prostaglandin E2], the “co-immunoprecipitation of mPPARγ with anti-15-keto-PGE2-cysteine-BSA antibody in fat tissue” value at mPPARγ was “confirming the covalent binding of mPPARγ to 15-keto-PGE2”. Also, the “co-immunoprecipitation with 15-keto-PGE2-cysteine antibody, wild-type mPPARγ” value on Myc-DDK-mPPARγ is recorded as “A single band of PPARγ (57 kDa) was detected”. Moreover, the “phospho-Akt after insulin injection (immunoblot)” value with phospho-Akt is “increased phospho-Akt in perigonadal fat, inguinal fat, brown adipose tissue, and liver”. The “covalent binding site on mPPARγ (LC-MS/MS)” value on murine PPARγ (mPPARγ) is given as “covalently binds mPPARγ at the Cys313 residue”. In addition, in the data set with Ucp1, the “expression of Ucp1 in fat depots” value was “increased expression of Ucp1 in inguinal, perigonadal, and brown adipose tissues”.
